Test results reported in patent US11883383B2, “Pharmaceutically acceptable salts of [3-(4- {2-butyl-1-[4-(4-chloro-phenoxy)-phenyl]-1H-imidazol-4-yl} -phenoxy)-propyl]-diethyl-amine” (vTv Therapeutics LLC, priority 2018, dated 2024).

Experiment: Salt/co-crystal screening: 38 acids, eight solvent systems, solids analysed by XRPD
Type: physicochemical
Details: acid/freebase charge 1:1 unless label says 2:1, stirred at RT, else 5° C. slurry, anti-solvent addition or evaporation (footnote marks)
Method: XRPD analysis was performed with a Panalytical X'Pert^3 Powder XRPD on a Si zero-background holder. The 2θ position was calibrated against Panalytical Si reference standard disc.
A total of 320 salt/co-crystal screening experiments were conducted using 38 acids (two molar ratios for HCl and HBr) and eight solvent systems. Specifically, freebase stock solutions of ˜100 mg/mL were first prepared in each solvent system. For each experiment, 0.2 mL stock solution and the corresponding acids were mixed in a molar charge ratio of 1:1 (acid/freebase, 2:1 for HCl/freebase and HBr/freebase as well), and then stirred at RT. After stirring for 3-5 days, if precipitation was observed, the precipitate was isolated. It no precipitation, the clear solutions were first transferred to slurry at 5° C. to introduce precipitation. Solutions without any precipitation were further subjected to anti-solvent addition (for solvents in column B/D, 0.5 mL hexane was added; for solvents in column G/H, 0.5 mL water was added; for solvent in column F, 0.5 mL n-heptane was added). If still no precipitation, the final clear solutions were transferred to evaporation at RT to induce precipitation. All solids isolated were vacuum dried at RT for 2 hrs before XRPD analysis.

| SMILES | Solid obtained in salt screening (XRPD), solvent H Dioxane/H2O (9:1, v/v) | Solid obtained in salt screening (XRPD), solvent A Ethanol | Solid obtained in salt screening (XRPD), solvent B Ethyl acetate/Hexane (1:2, v/v) | Solid obtained in salt screening (XRPD), solvent G Methanol/H2O (19:1, v/v) | Solid obtained in salt screening (XRPD), solvent F Methyl tertbutyl ether | Solid obtained in salt screening (XRPD), solvent C THF | Solid obtained in salt screening (XRPD), solvent D Acetone/Hexane (1:2, v/v) | Solid obtained in salt screening (XRPD), solvent E Toluene |
| --- | --- | --- | --- | --- | --- | --- | --- | --- |
| O=C(O)c1cccnc1 [Nicotinic acid] | amorphous* | gel* | nicotinic acid | amorphous* | nicotinic acid | gel* |  |  |
| CCC(=O)O [Propionic acid] | amorphous* | gel* | FB Type A | FB Type A^& | FB Type B* | gel* | gel* | gel* |
| CCCCCCCCCCCCCCCC(=O)O [Palmitic acid] | gel* | gel* | gel* | FB Type A^& | gel* | gel* | gel* | gel* |
| O=C(O)CCCC(=O)O [Glutaric acid] | amorphous* | gel* | amorphous* | amorphous* | amorphous^& | gel* | amorphous* | gel* |
| O=C(O)CCCCC(=O)O [Adipic acid] | amorphous* | gel* | amorphous* | amorphous* | amorphous* | gel* | FB Type B* | gel* |
| O=C(O)/C=C/C(=O)O [Fumaric acid] | amorphous* | gel* |  | amorphous* |  | gel* |  |  |
| O=C(O)CC(O)(CC(=O)O)C(=O)O [Citric acid] | amorphous* | gel* |  | amorphous* | amorphous | amorphous^# |  | amorphous |
| Nc1ccc(C(=O)O)c(O)c1 [4-Aminosalicylic acid] | gel | gel* |  |  |  | gel | gel | gel |
| O=C(O)/C=C\C(=O)O [Maleic acid] | amorphous* | gel* |  | amorphous* |  | gel* |  | gel* |
| O=C(O)[C@H](O)[C@@H](O)[C@H](O)[C@H](O)CO [Gluconic acid] | amorphous* | amorphous* | gel* | amorphous* | amorphous | amorphous* | amorphous^& | gel |
| O=S(=O)(O)O [H2SO4] | gel* | gel* | gel | gel* |  | gel | gel | amorphous* |
| N[C@@H](CCC(=O)O)C(=O)O [Glutamic acid] | glutamic acid | glutamic acid |  |  | glutamic acid |  |  |  |
| O=C(O)c1ccccc1O [Salicyclic acid] | amorphous* | gel* | amorphous* | amorphous* | amorphous^& | gel* | amorphous* | gel* |
| O=C(O)C(=O)O [Oxalic acid] |  |  |  | gel* |  |  |  |  |
| O=C(O)c1ccccc1 [Benzoic acid] | amorphous* | gel* | gel* | amorphous* | amorphous* | gel* | gel* | gel* |
| O=C(O)C[C@H](O)C(=O)O [L-malic acid] | amorphous* | amorphous* |  | amorphous* |  | gel | gel | gel |
| COc1cc(C=O)ccc1O [Vanillin] | FB Type A^& | gel* | gel* | amorphous^& | amorphous* | gel | gel* | gel |
